For the assay, the target named is T1, human PTHR1 receptor (Homo sapiens, UniProt Q03431).
T1 construct: purchased Eurofins HTS030M
T1 sequence (Q03431 27-593): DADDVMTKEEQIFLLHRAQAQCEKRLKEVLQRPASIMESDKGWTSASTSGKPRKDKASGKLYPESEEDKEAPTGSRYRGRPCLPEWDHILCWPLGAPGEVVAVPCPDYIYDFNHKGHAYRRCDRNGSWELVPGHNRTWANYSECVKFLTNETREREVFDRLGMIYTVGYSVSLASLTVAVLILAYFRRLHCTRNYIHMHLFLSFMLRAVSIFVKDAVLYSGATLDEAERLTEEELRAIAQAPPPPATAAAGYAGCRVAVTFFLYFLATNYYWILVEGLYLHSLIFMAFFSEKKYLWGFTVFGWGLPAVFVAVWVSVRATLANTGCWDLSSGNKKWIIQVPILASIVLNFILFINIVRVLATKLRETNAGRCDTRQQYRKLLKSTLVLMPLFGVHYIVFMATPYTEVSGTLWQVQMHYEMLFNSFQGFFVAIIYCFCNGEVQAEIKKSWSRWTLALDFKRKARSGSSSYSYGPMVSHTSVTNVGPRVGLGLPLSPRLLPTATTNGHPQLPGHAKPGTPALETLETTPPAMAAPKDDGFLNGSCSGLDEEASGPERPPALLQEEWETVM
Kind of assay: Competitive antagonist binding assay for hPTH-R1 (radioactive competition binding, SPA beads). Particulars: human PTHR1 membranes, [125I]-[Nle8,18,Tyr34]-PTH(1-34) 0.2 nM, 90 minutes at room temperature; read-out: hPTHR1 Ki. The method, boiled down: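 Human PTHR1 membranes on SPA beads incubated 90 min at room temperature with compound (typically 0-10,000 nM final) and 0.2 nM [125I]-[Nle8,18,Tyr34]-PTH(1-34) in HEPES buffer with MgCl2, CaCl2, BSA, Triton X-100 and protease inhibitors, pH 7.4. Scintillation signal read; Ki values derived.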

Bounds are passed on as bounds.

A word on the Ki: it is a measure of affinity in units of concentration, obtained from inhibition or displacement.

Turning to `CCN1C(=O)N(c2c(F)cc(NCCNCCO)cc2F)c2cc(C#N)ccc2-c2cc(C(F)(F)F)cnc21` [1-98, 10-[2,6-difluoro-4-({2-[(2-hydroxyethyl)amino]ethyl}amino)phenyl]-8-ethyl-9-oxo-4-(trifluoromethyl)-6,8,10-triazatricyclo[9.4.0.0^2,7]pentadeca-1(11),2(7),3,5,12,14-hexaene-13-carbonitrile], the Ki is < 100 nM.

For the molecule `CN1C(=O)N(c2c(F)cc(NCCNCCO)cc2F)c2cc(C#N)ccc2-c2cc(Cl)cnc21` [1-195, 4-chloro-10-[2,6-difluoro-4-({2-[(2-hydroxyethyl)amino]ethyl}amino)phenyl]-8-methyl-9-oxo-6,8,10-triazatricyclo[9.4.0.0^2,7]pentadeca-1(11),2(7),3,5,12,14-hexaene-13-carbonitrile], the Ki is < 100 nM.

`CCN1C(=O)N(c2c(F)cc(NCCN[C@@H](CC(C)C)C(=O)O)cc2F)c2cc(C#N)ccc2-c2cc(Cl)cnc21` [1-240, (2S)-2-({2-[(4-{4-chloro-13-cyano-8-ethyl-9-oxo-6,8,10-triazatricyclo[l9.4.0.0^2,7]pentadeca-1(11),2(7),3,5,12,14-hexaen-10-yl}-3,5-difluorophenyl)amino]ethyl}amino)-4-methylpentanoic acid]: the Ki was < 100 nM.

As for `CCN1C(=O)N(c2c(F)cc(NCCNC3CCOCC3)cc2F)c2cc(Cl)ccc2-c2cccnc21` [1-4, 13-chloro-10-[2,6-difluoro-4-({2-[(oxan-4-yl)amino]ethyl}amino)phenyl]-8-ethyl-6,8,10-triazatricyclo[9.4.0.0^2,7]pentadeca-1(11),2(7),3,5,12,14-hexaen-9-one], the inhibitory constant (Ki) is < 100 nM.

For the molecule `CC(C)N1C(=O)N(c2c(F)cc(NCCNCCCC(=O)O)cc2F)c2cc(C#N)cc(F)c2-c2cc(F)cnc21` [1-163, 4-{[2-({4-[13-cyano-4,15-difluoro-9-oxo-8-(propan-2-yl)-6,8,10-triazatricyclo[9.4.0.0^2,7]pentadeca-1(15),2(7),3,5,11,13-hexaen-10-yl]-3,5-difluorophenyl}amino)ethyl]amino}butanoic Acid], the Ki was < 100 nM.

Take `CCN1C(=O)N(c2c(F)cc(NCCN[C@@H](C)CO)cc2F)c2cc(C#N)ccc2-c2cc(F)cnc21` [1-213, 10-{2,6-difluoro-4-[(2-{[(2S)-1-hydroxypropan-2-yl]amino}ethyl)amino]phenyl}-8-ethyl-4-fluoro-9-oxo-6,8,10-triazatricyclo[9.4.0.0^2,7]pentadeca-1(11),2(7),3,5,12,14-hexaene-13-carbonitrile]: the Ki is < 100 nM.

As for `CCN1C(=O)N(c2c(F)cc(NCCNCCN3CCNC3=O)cc2F)c2cc(C#N)ccc2-c2cc(Cl)cnc21` [1-228, 4-chloro-10-{2,6-difluoro-4-[(2-{[2-(2-oxoimidazolidin-1-yl)ethyl]amino}ethyl)amino]phenyl}-8-ethyl-9-oxo-6,8,10-triazatricyclo[9.4.0.0^2,7]pentadeca-1(11),2(7),3,5,12,14-hexaene-13-carbonitrile], the Ki was < 100 nM.

Regarding `CCN1C(=O)N(c2c(F)cc(NCCNCCO)cc2F)c2cc(Cl)ccc2-c2cccnc21` [1-7, 13-chloro-10-[2,6-difluoro-4-({2-[(2-hydroxyethyl)amino]ethyl}amino)phenyl]-8-ethyl-6,8,10-triazatricyclo[9.4.0.0^2,7]pentadeca-1(11),2(7),3,5,12,14-hexaen-9-one], the Ki was < 100 nM.

For the molecule `CCN1C(=O)N(c2c(F)cc(NCCNCCO)cc2F)c2cc(Cl)cc(C)c2-c2cc(Cl)cnc21` [1-51, 4,13-dichloro-10-[2,6-difluoro-4-({2-[(2-hydroxyethyl)amino]ethyl}amino)phenyl]-8-ethyl-15-methyl-6,8,10-triazatricyclo[9.4.0.0^2,7]pentadeca-1(11),2(7),3,5,12,14-hexaen-9-one], the Ki was < 100 nM.

`CCN1C(=O)N(c2c(F)cc(NCCNCCO)cc2F)c2cc(F)ccc2-c2cc(Cl)cnc21` [1-129, 4-chloro-10-[2,6-difluoro-4-({2-[(2-hydroxyethyl)amino]ethyl}amino)phenyl]-8-ethyl-13-fluoro-6,8,10-triazatricyclo[9.4.0.0^2,7]pentadeca-1(11),2(7),3,5,12,14-hexaen-9-one]: the Ki was < 100 nM.

Consider `CCCN1C(=O)N(c2c(F)cc(NCCNCCO)cc2F)c2cc(Cl)ccc2-c2cc(Cl)cnc21` [1-49, 4,13-dichloro-10-[2,6-difluoro-4-({2-[(2-hydroxyethyl)amino]ethyl}amino)phenyl]-8-propyl-6,8,10-triazatricyclo[9.4.0.0^2,7]pentadeca-1(11),2(7),3,5,12,14-hexaen-9-one], for which the Ki was < 100 nM.

On to `CCN1C(=O)N(c2c(F)cc(NCCNCCO)cc2F)c2cc(Cl)cnc2-c2cc(Cl)cnc21` [3-21, 5,14-dichloro-8-[2,6-difluoro-4-({2-[(2-hydroxyethyl)amino]ethyl}amino)phenyl]-10-ethyl-3,8,10,12-tetraazatricyclo[9.4.0.0^2,7]pentadeca-1(11),2(7),3,5,12,14-hexaen-9-one], for which the inhibitory constant (Ki) is < 100 nM.

Consider `CCN1C(=O)N(c2c(F)cc(NCCNC[C@H](O)c3ccccc3)cc2F)c2cc(C#N)ccc2-c2cc(Cl)cnc21` [1-230, 4-chloro-10-{2,6-difluoro-4-[(2-{[(2R)-2-hydroxy-2-phenylethyl]amino}ethyl)amino]phenyl}-8-ethyl-9-oxo-6,8,10-triazatricyclo[9.4.0.0^2,7]pentadeca-1(11),2(7),3,5,12,14-hexaene-13-carbonitrile], for which the Ki is < 100 nM.

With `CCN1C(=O)N(c2c(F)cc(NCCNCCCS(=O)(=O)O)cc2F)c2cc(C#N)ccc2-c2cc(F)cnc21` [1-221, 3-({2-[(4-{13-cyano-8-ethyl-4-fluoro-9-oxo-6,8,10-triazatricyclo[9.4.0.0^2,7]pentadeca-1(11),2(7),3,5,12,14-hexaen-10-yl}-3,5-difluorophenyl)amino]ethyl}amino)propane-1-sulfonic acid], the Ki is < 100 nM.

Take `CCN1C(=O)N(c2c(F)cc(NCCNC)cc2F)c2cc(C#N)ccc2-c2cc(C(F)(F)F)cnc21` [1-97, 10-(2,6-difluoro-4-{[2-(methylamino)ethyl]amino}phenyl)-8-ethyl-9-oxo-4-(trifluoromethyl)-6,8,10-triazatricyclo[9.4.0.0^2,7]pentadeca-1(11),2(7),3,5,12,14-hexaene-13-carbonitrile]: the Ki is < 100 nM.

In the case of `CCN1C(=O)N(c2c(F)cc(NCCNCCCO)cc2F)c2cc(C#N)ccc2-c2cc(Cl)cnc21` [1-190, 4-chloro-10-[2,6-difluoro-4-({2-[(3-hydroxypropyl)amino]ethyl}amino)phenyl]-8-ethyl-9-oxo-6,8,10-triazatricyclo[9.4.0.0^2,7]pentadeca-1(11),2(7),3,5,12,14-hexaene-13-carbonitrile], the inhibitory constant (Ki) was < 100 nM.

Regarding `CCN1C(=O)N(c2c(F)cc(NCCN[C@@H](C)C(=O)O)cc2F)c2cc(C#N)ccc2-c2cc(Cl)cnc21` [1-219, (2S)-2-({2-[(4-{4-chloro-13-cyano-8-ethyl-9-oxo-6,8,10-triazatricyclo[9.4.0.0^2,7]pentadeca-1(11),2(7),3,5,12,14-hexaen-10-yl}-3,5-difluorophenyl)amino]ethyl}amino)propanoic acid], the Ki is < 100 nM.

For the molecule `CCN1C(=O)N(c2c(F)cc(NCCNCCN)cc2F)c2cc(C#N)ccc2-c2cc(F)cnc21` [1-237, 10-[4-({2-[(2-aminoethyl)amino]ethyl}amino)-2,6-difluorophenyl]-8-ethyl-4-fluoro-9-oxo-6,8,10-triazatricyclo[9.4.0.0^2,7]pentadeca-1(11),2(7),3,5,12,14-hexaene-13-carbonitrile], the Ki was < 100 nM.

With “10-[4-({2-[(3-amino-2-hydroxypropyl)amino]ethyl}amino)-2,6-difluorophenyl]-4-chloro-8-ethyl-9-oxo-6,8,10-triazatricyclo[9.4.0.0^2,7]pentadeca-1(11),2(7),3,5,12,14-hexaene-13-carbonitrile [1-188]”, the Ki was < 100 nM.

In the case of `CCN1C(=O)N(c2c(F)cc(NCCN[C@H]3C[C@@H](O)C3)cc2F)c2cc(C#N)ccc2-c2cc(C(F)(F)F)cnc21` [1-207, 10-{2,6-difluoro-4-[(2-{[(1s,3s)-3-hydroxycyclobutyl]amino}ethyl)amino]phenyl}-8-ethyl-9-oxo-4-(trifluoromethyl)-6,8,10-triazatricyclo[9.4.0.0^2,7]pentadeca-1(11),2(7),3,5,12,14-hexaene-13-carbonitrile], the Ki was < 100 nM.

For `CCN1C(=O)N(c2c(F)cc(NCCNCCCC(=O)O)cc2F)c2cc(C#N)ccc2-c2cc(F)cnc21` [1-83, 4-({2-[(4-{13-cyano-8-ethyl-4-fluoro-9-oxo-6,8,10-triazatricyclo[9.4.0.0^2,7]pentadeca-1(11),2(7),3,5,12,14-hexaen-10-yl}-3,5-difluorophenyl)amino]ethyl}amino)butanoic acid], the Ki is < 100 nM.

The values above are taken from patent US20230159532A1, “PARATHYROID HORMONE (PTH) RECEPTOR ANTAGONISTS AND USES THEREOF” (Crinetics Pharmaceuticals, Inc., priority 2021, published 2023).
